Columns and labels:
Mexican Bean Beetle = experiment: Mexican Bean Beetle, dipped lima bean leaves; type: in vivo, Epilachna varivestis Mulsant; details: Epilachna varivestis, read-out: % Kill, Mexican Bean Beetle
Source text: Mexican Bean Beetle -- Epilachna varivestis Mulsant
Sieva lima bean plants (two per pot) with primary leaves 3 to 4 inches long, are dipped in a 35/65% water/acetone mixture containing 100 ppm. of test compound and set in the hood to dry. One leaf is removed from a plant and placed in a 4-inch petri dish containing a moist filter paper on the bottom and 10 last-instar larvae (13 days from hatching). The day after treatment, another leaf is removed from the plant and fed to the larvae after removing the remains of the original leaf. Two days after treatment, the third leaf is fed to the larvae, this usually being the last needed. The fourth leaf is used on the third day after treatment if the larvae have not finished feeding. The test is now set aside and held until adults have emerged, usually in about nine days after treatment began. After emergence is complete, each dish is examined for dead larvae, pupae or adults; deformed pupae or adults; larval-pupal intermediates or pupal-adult intermediates; or any other interference with normal molting, transformation and emergence of pupae or adults.

Southern Corn Rootworm = experiment: Soil Insecticide test, Southern Corn Rootworm; type: in vivo, Diabrotica undecimpunctata howardi Barber; details: 144 h, 6 days, read-out: % Kill, Soil Insecticide, Southern Corn Rootworm; for mortality at 1 ppm: 1 ppm in soil; for mortality at 10 ppm: 10 ppm in soil; for mortality at 100 ppm: 100 ppm in soil
Protocol: Southern Corn Rootworm -- Diabrotica undecimpunctata howardi Barber
[…] Twelve and one-half milliliters of Littleton silt loam soil and 1 milliliter of millet seed (food for larvae) are added, the jars capped and the contents thoroughly mixed about 2 minutes on a rotary tumbler. Each jar then receives 5 ml. of tap water and ten southern corn rootworm larvae (Diabrotica undecimpunctata howardi Barber) 6 to 8 days old. The jars are loosely capped and placed in the holding room at 26.7°C. and 60% r.h. with constant light. Mortality counts are made after 6 days. Corrected percent mortality data is recorded on standard forms.

[1] = system: Western Potato Leafhopper; experiment: Western Potato Leafhopper, dipped lima bean leaf; type: in vivo, Empoasca abrupta Say; details: 48 h, 2 days, read-out: % Kill, Western Potato Leafhopper
Source text: Western Potato Leafhopper -- Empoasca abrupta Say
A Sieva lima bean plant with the primary leaf expanded to 3 to 4 inches is dipped into a 35/65% water/acetone mixture containing 100 ppm. of test compound and set in the hood to dry. A 1-inch piece of the tip of one leaf is cut off and placed in a 4-inch petri dish with a moist filter paper in the bottom. From three to 10 second-instar nymphs are tapped from the culture plants into the test dish and rapidly covered. Mortality counts are made after 2 days at 80°F., and 50% r.h.

Malaria Mosquito = Malaria Mosquito adult test, treated slide; type: in vivo, Anopheles quadrimaculatus Say; details: Anopheles quadrimaculatus, 24 h, adults, one day, read-out: % Kill, Malaria Mosquito
Protocol: Malaria Mosquito -- Anopheles quadrimaculatus Say -- Adult Test
Ten ppm. acetone solutions of test compounds are poured into wide-mouth 2-ounce jars each containing a microscope slide. The slides are removed from the test solution with forceps and laid horizontally to dry on a wide-mouth 4-ounce bottle. When dry, they are placed in the same 4-ounce bottle and 10 4-to 5-day-old mosquitoes of mixed sexes are added to each bottle. A piece of cotton gauze held on by an elastic band serves as a lid and wad of cotton soaked in 10% honey solution serves as food. Mortality counts are made after one day at 80°F., 50% r.h.

Bean Aphid = experiment: Bean Aphid, sprayed nasturtium plants; type: in vivo, Aphis fabae Scopoli; details: Aphis fabae, 24 h, one day, read-out: % Kill, Bean Aphid
Protocol: Bean Aphid -- Aphis fabae Scopoli
Two-inch fiber pots, each containing a nasturtium plant 2 inches high and infested with 100 to 150 aphids 2 days earlier are placed on a 4 […] an Atomizer at 20 psi. air pressure. The spray tip is held about 6 inches from the plants and the spray directed so as to give complete coverage of the aphids and the plants. The sprayed plants are laid on their sides on white enamel trays. Mortality estimates are made after one day at 70°F., 50% r.h.

mice = experiment: Mammalian toxicity, LD50 in mice; type: in vivo, male albino mice of the CFI strain; details: versus O,O-diethyl S-(tert-butylsulfinyl)methyl phosphorodithioate
Protocol: For the tests reported in Table II, 20 male albino mice of the CFI strain, weighing approximately 18 grams to 20 grams are selected. The phosphates are readied for administration by preparing a solution or dispersion in corn oil (Mazola), the concentration of which is adjusted so that the total volume of the dose is 0.5 ml./kg. in every case. The initial solution is prepared by deciding upon the maximum dosage in mg./kg. to be administered and preparing 10 ml. of this solution of such a concentration that the desired dosage in mg./kg. is delivered when 0.5 ml. of the solution is administered for 20 grams of mouse body weight. Serial dilutions differing by a factor of two are then prepared for each lower dosage level. LD50 stands for the lethal dose in mg./kg. which kills 50% of the mice.

insects = experiment: Insecticidal activity compared with art compound; type: in vivo; details: versus O,O-diethyl S-(tert-butylsulfinyl)methyl phosphorodithioate

Row | Structure (SMILES) | mortality at 10 ppm (Mexican Bean Beetle) [%] | mortality at 100 ppm (Mexican Bean Beetle) [%] | mortality at 1 ppm (Southern Corn Rootworm) [%] | mortality at 10 ppm (Southern Corn Rootworm) [%] | mortality at 100 ppm (Southern Corn Rootworm) [%] | mortality at 10 ppm [1] [%] | mortality at 100 ppm [1] [%] | mortality at 1 ppm (Malaria Mosquito) [%] | mortality at 10 ppm (Malaria Mosquito) [%] | mortality at 1 ppm (Bean Aphid) [%] | mortality at 10 ppm (Bean Aphid) [%] | mortality at 100 ppm (Bean Aphid) [%] | toxicity to mammals (mice) relative to art compound (mice) | insecticidal activity relative to art compound (insects)
1 | CCOP(=O)(OCC)SC[S+]([O-])C(C)(C)C (stereo not drawn) [O,O-diethyl S-(tert-butylsulfinyl)methyl Phosphorothioate] | 100 | 100 | 61 | 100 | 100 | 100 | 100 | 40 | 100 | 100 | 100 | 100 |  | 
2 | CCOP(=S)(OCC)SC[S+]([O-])C(C)(C)C (stereo not drawn) [O,O-diethyl S-(tert-butylsulfinyl)methyl phosphorodithioate, reference compound] | 80 | 90 | 95 | 100 | 100 | 100 | 100 | 0 | 80 | 100 | 100 | 100 |  | 
3 | CCOP(=S)(OCC)SCS(=O)(=O)C(C)(C)C [O,O-diethyl S-(tert-butylsulfonyl)methyl Phosphorodithioate] |  | 100 | 100 | 100 | 100 |  |  | 50 | 100 | 100 | 100 | 100 | much less toxic to mammals (mice) than the art compound | equal to, and in some cases superior to, this art compound
4 | CCOP(=O)(OCC)SCS(=O)(=O)C(C)(C)C [O,O-diethyl S-(tert-butylsulfonyl)methyl Phosphorothioate] | 70 | 90 | 0 | 100 | 100 | 100 | 100 | 0 | 50 | 100 | 100 | 100 |  | 

From US3939263A, “Methods of combatting insects and acarina using oxygenated derivatives of S-(tert-bulythio)methyl O,O-diethyl phosphorodithioate and phosphorothioate” (priority 1974, dated 1976)
